# Experimental data published in US6653344B2, “Pharmaceutical preparations containing a dibenzocyclooctane lignan derivative for treatment of neurodegenerative disease” (Elcom Bio Technology Co., Ltd., priority 2000, dated 2003).
# System: nitric oxide (NO) content in glutamate-damaged primary cultured rat cortical cells
# Assay: Measurement of nitrite (Griess reagent), NO content
# Type: cell-based
# Details: compound 1 M (1 μM) for 1 hr before 100 M glutamate, 24 hr
# Description: The content of nitrite isolated into culture broth from first cultured cortical cells was assayed by using Griess reagent by Dawson's method (Dawson V L, Brahbhatt H P, Mong J A and Dawson T M (1994) Expression of inducible nitric oxide synthase causes delayed neurotoxicity in primary neuronal-glial cortical cultures. Neuropharmacology 33: 1425-1430).
# In case glutamate is treated to first cultured cortical cells of mice, formation of NO is increased. […] When schizandrin is treated at the 1 μM concentration, it decreased NO content increased by glutamate. […] When deoxyschizandrin, gomisin N and wuweizisu C are treated at 1 uM concentration to first cultured cortical cells toxicity-induced by glutamate, those maintained about 50% of normal state activity of GSH-px and glutathione decreased by glutamate and have protective activity on the activity of antioxidant enzymes.
# Rat cortical cultures were treated with compounds at the concentration of 1 M for 1 hr before exposure to 100 M glutamate and then maintained for 24 hr. Values given represent the mean SD (n=3).
smiles,measurement,value
COc1cc2c(c(OC)c1OC)-c1c(cc(OC)c(OC)c1OC)C[C@](C)(O)[C@@H](C)C2 [schizandrin],Protection (NO content),40.2%
